Assays:
Format in all cases: in vivo
Lolium perenne (LOLPE) [1] = assay: Pre-emergence glasshouse herbicide test; settings: pre-emergence (sprayed after one day cultivation), 1000 g/h, evaluated after 13 days, five point scale
Protocol: (§1) Seeds of a variety of test species are sown in standard soil in pots (Lolium perenne (LOLPE), Solanum nigrum (SOLNI), Amaranthus retoflexus (AMARE), Setaria faberi (SETFA), Echinochloa crus-galli (ECHCG), Ipomoea hederacea (IPOHE)). After cultivation for one day (pre-emergence) or after 8 days cultivation (post-emergence) under controlled conditions in a glasshouse (at 24/16° C., day/night; 14 hours light; 65% humidity), the plants are sprayed with an aqueous spray solution derived from the formulation of the technical active ingredient in acetone/water (50:50) solution containing 0.5% Tween 20 (polyoxyethelyene sorbitan monolaurate, CAS RN 9005-64-5). Compounds are applied at 1000 g/h. The test plants are then grown in a glasshouse under controlled conditions in a glasshouse (at 24/16° C., day/night; 14 hours light; 65% humidity) and watered twice daily. After 13 days for pre and post-emergence, the test is evaluated for the percentage damage caused to the plant. The biological activities are shown in the following table on a five point scale (5=80-100%; 4=60-79%; 3=40-59%; 2=20-39%; 1=0-19%).

[2] = tested on: Echinochloa crus-galli (ECHCG); assay: Pre-emergence glasshouse herbicide test; settings: pre-emergence (sprayed after one day cultivation), 1000 g/h, evaluated after 13 days, five point scale
Protocol: as §1

Solanum nigrum (SOLNI) [3] = assay: Pre-emergence glasshouse herbicide test; settings: pre-emergence (sprayed after one day cultivation), 1000 g/h, evaluated after 13 days, five point scale
Protocol: as §1

Setaria faberi (SETFA) [4] = assay: Pre-emergence glasshouse herbicide test; settings: pre-emergence (sprayed after one day cultivation), 1000 g/h, evaluated after 13 days, five point scale
Protocol: as §1

[5] = tested on: Ipomoea hederacea (IPOHE); assay: Pre-emergence glasshouse herbicide test; settings: pre-emergence (sprayed after one day cultivation), 1000 g/h, evaluated after 13 days, five point scale
Protocol: as §1

[6] = tested on: Amaranthus retoflexus (AMARE); assay: Pre-emergence glasshouse herbicide test; settings: pre-emergence (sprayed after one day cultivation), 1000 g/h, evaluated after 13 days, five point scale
Protocol: as §1

Lolium perenne (LOLPE) [7] = assay: Post-emergence glasshouse herbicide test; settings: post-emergence (sprayed after 8 days cultivation), 1000 g/h, evaluated after 13 days, five point scale
Protocol: as §1

[8] = tested on: Echinochloa crus-galli (ECHCG); assay: Post-emergence glasshouse herbicide test; settings: post-emergence (sprayed after 8 days cultivation), 1000 g/h, evaluated after 13 days, five point scale
Protocol: as §1

Solanum nigrum (SOLNI) [9] = assay: Post-emergence glasshouse herbicide test; settings: post-emergence (sprayed after 8 days cultivation), 1000 g/h, evaluated after 13 days, five point scale
Protocol: as §1

Setaria faberi (SETFA) [10] = assay: Post-emergence glasshouse herbicide test; settings: post-emergence (sprayed after 8 days cultivation), 1000 g/h, evaluated after 13 days, five point scale
Protocol: as §1

[11] = tested on: Ipomoea hederacea (IPOHE); assay: Post-emergence glasshouse herbicide test; settings: post-emergence (sprayed after 8 days cultivation), 1000 g/h, evaluated after 13 days, five point scale
Protocol: as §1

[12] = tested on: Amaranthus retoflexus (AMARE); assay: Post-emergence glasshouse herbicide test; settings: post-emergence (sprayed after 8 days cultivation), 1000 g/h, evaluated after 13 days, five point scale
Protocol: as §1

SMILES	percentage damage caused to the plant, LOLPE, PRE Application (Lolium perenne (LOLPE) [1])	percentage damage caused to the plant, ECHCG, PRE Application [2]	percentage damage caused to the plant, SOLNI, PRE Application (Solanum nigrum (SOLNI) [3])	percentage damage caused to the plant, SETFA, PRE Application (Setaria faberi (SETFA) [4])	percentage damage caused to the plant, IPOHE, PRE Application [5]	percentage damage caused to the plant, AMARE, PRE Application [6]	percentage damage caused to the plant, LOLPE, POST Application (Lolium perenne (LOLPE) [7])	percentage damage caused to the plant, ECHCG, POST Application [8]	percentage damage caused to the plant, SOLNI, POST Application (Solanum nigrum (SOLNI) [9])	percentage damage caused to the plant, SETFA, POST Application (Setaria faberi (SETFA) [10])	percentage damage caused to the plant, IPOHE, POST Application [11]	percentage damage caused to the plant, AMARE, POST Application [12]
COc1cccc(-c2c(Cl)c(C(=O)Nc3nnnn3C)nn(C)c2=O)c1 [Compound 1.036]	5 (5=80-100%)	5 (5=80-100%)	5 (5=80-100%)	5 (5=80-100%)	2 (2=20-39%)	5 (5=80-100%)	5 (5=80-100%)	5 (5=80-100%)	5 (5=80-100%)	5 (5=80-100%)	4 (4=60-79%)	5 (5=80-100%)
Cc1ccc(-c2c(Cl)c(C(=O)Nc3nnnn3C)nn(C)c2=O)cc1 [Compound 1.015]	5 (5=80-100%)	5 (5=80-100%)	5 (5=80-100%)	5 (5=80-100%)	2 (2=20-39%)	5 (5=80-100%)	5 (5=80-100%)	5 (5=80-100%)	5 (5=80-100%)	5 (5=80-100%)	3 (3=40-59%)	5 (5=80-100%)
Cc1ccc(C)c(-c2c(Cl)c(C(=O)Nc3nnnn3C)nn(C)c2=O)c1 [Compound 1.020]	5 (5=80-100%)	5 (5=80-100%)	5 (5=80-100%)	5 (5=80-100%)	5 (5=80-100%)	5 (5=80-100%)	5 (5=80-100%)	5 (5=80-100%)	5 (5=80-100%)	5 (5=80-100%)	5 (5=80-100%)	5 (5=80-100%)
CCCCNc1c(C(=O)Nc2nnnn2C)nn(C)c(=O)c1C [Compound 1.008]	1 (1=0-19%)	1 (1=0-19%)	2 (2=20-39%)	1 (1=0-19%)	2 (2=20-39%)	4 (4=60-79%)	1 (1=0-19%)	1 (1=0-19%)	5 (5=80-100%)	1 (1=0-19%)	2 (2=20-39%)	5 (5=80-100%)

Source: patent US9701662B2, “Herbicidal compounds” (Syngenta Participations AG, priority 2014, dated 2017)
